What was measured:
Type in all cases: in vivo
[1] = tested on: Septoria tritici (leaf blotch); test: Test 1 greenhouse foliar spray screen, leaf blotch on wheat; conditions: disease control rating, foliar spray on wheat, 400 ppm (+++ at 100 ppm)
[2] = tested on: Venturia inaequalis (apple scab); test: Test 1 greenhouse foliar spray screen, apple scab on apple seedling; conditions: disease control rating, foliar spray on apple seedling, 400 ppm (+++ at 100 ppm)
[3] = tested on: Twospotted spider mites (Tetranychus urticae Koch); test: Mite/insect screen, SM; conditions: percent mortality, SAW; for mortality at 200 ppm / mortality at 400 ppm: Tetranychus urticae, read-out: SM RESULTS %; for mortality at 400 ppm: SM & MA RATE 400 PPM
Outline: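 Compounds dissolved in 50:50 acetone/alcohol containing sulfonate/nonionic emulsifier blends, then diluted with water to the indicated concentrations. Leaves sprayed on both surfaces to runoff at 10 psi and dried one hour. Percent mortality scored after standard exposure periods.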

[4] = tested on: Puccinia recondita tritici (leaf rust); test: Test 1 greenhouse foliar spray screen, leaf rust on wheat; conditions: disease control rating, foliar spray on wheat, 400 ppm (+++ at 100 ppm)
[5] = tested on: Erysiphe graminis tritici (powdery mildew); test: Test 1 greenhouse foliar spray screen, powdery mildew on wheat; conditions: disease control rating, foliar spray on wheat, 400 ppm (+++ at 100 ppm)
[6] = tested on: Cercospora beticola (leaf spot); test: Test 1 greenhouse foliar spray screen, leaf spot on sugar beet; conditions: disease control rating, foliar spray on sugar beet, 400 ppm (+++ at 100 ppm)
[7] = tested on: Pseudoperonospora cubensis (downy mildew); test: Test 1 greenhouse foliar spray screen, downy mildew on squash; conditions: disease control rating, foliar spray on squash, 400 ppm (+++ at 100 ppm)
[8] = tested on: Botrytis cinerea (gray mold); test: Test 1 greenhouse foliar spray screen, gray mold on grape berries; conditions: disease control rating, spray on grape berries, 400 ppm (+++ at 100 ppm)
corn rootworm = test: Mite/insect screen, CRW; conditions: percent mortality; for mortality at 12 ppm / mortality at 24 ppm: read-out: CRW RESULTS %; for mortality at 24 ppm: CRW RATE 24.00 PPM
Outline: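 Percent mortality is evaluated once the standard exposure period ends. Test material is applied as a water dilution of an acetone/alcohol (50:50) stock carrying two sulfonate/nonionic emulsifiers (23 and 13 g per liter).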

[9] = tested on: melon aphids (Aphis gossypii Glover); test: Mite/insect screen, MA; conditions: percent mortality, SAW; for mortality at 200 ppm / mortality at 400 ppm: Aphis gossypii, read-out: MA RESULTS %; for mortality at 400 ppm: SM & MA RATE 400 PPM
Outline: (§1)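 Formulation: acetone/alcohol 50:50 + sulfonate/nonionic emulsifiers, water-diluted to indicated concs. Spray both leaf surfaces to runoff, 10 psi; dry 1 h. Armyworm: 2 excised uninfested leaves in Petri dish. Score % mortality after standard exposure.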

[10] = tested on: southern armyworm (Spodopetra eridania Cramer); test: Mite/insect screen, SAW; conditions: percent mortality, SAW; for mortality at 200 ppm / mortality at 400 ppm: Spodoptera eridania, read-out: SAW RESULTS %; for mortality at 400 ppm: SM & MA RATE 400 PPM
Outline: as §1

[11] = tested on: Pyricularia oryzae (rice blast); test: whole plant or invertebrate; conditions: disease control rating, foliar spray on rice, 400 ppm (+++ at 100 ppm)

Fc1cccc2c(NCCc3ccc(-c4ccccc4)cc3)ccnc12 [Example 113, N-[2-(1,1-biphenyl)-4-yl-ethyl]-8-fluoro-4-quinolinamine]
LEAF BLOT [1]: +++ (90-100% control at 100 ppm) | APPL SCAB [2]: - (0-19% control at 400 ppm) | mortality at 200 ppm ([3]; SM & MA RATE 200 PPM): 40% | mortality at 400 ppm [3]: 0% | LEAF RUST [4]: +++ (90-100% control at 100 ppm) | POWD MDEW [5]: + (20-89% control at 400 ppm) | LEAF SPOT [6]: - (0-19% control at 400 ppm) | DOWN MDEW [7]: +++ (90-100% control at 100 ppm) | GRAY MOLD [8]: - (0-19% control at 400 ppm) | mortality at 12 ppm (corn rootworm; CRW RATE 12.00 PPM): 0% | mortality at 24 ppm (corn rootworm): 100% | mortality at 200 ppm ([9]; SM & MA RATE 200 PPM): 0% | mortality at 400 ppm [9]: 0% | mortality at 200 ppm ([10]; SM & MA RATE 200 PPM): 100% | mortality at 400 ppm [10]: 70% | RICE BLAST [11]: +++ (90-100% control at 100 ppm)

Fc1cccc2c(NCCc3ccccc3)cc(Cl)nc12 [Example 116, 2-chloro-8-fluoro-N-(2-phenylethyl)-4-quinolinamine]
LEAF BLOT [1]: - (0-19% control at 400 ppm) | APPL SCAB [2]: + (20-89% control at 400 ppm) | mortality at 200 ppm ([3]; SM & MA RATE 200 PPM): 0% | LEAF RUST [4]: +++ (90-100% control at 100 ppm) | POWD MDEW [5]: - (0-19% control at 400 ppm) | LEAF SPOT [6]: + (20-89% control at 400 ppm) | DOWN MDEW [7]: +++ (90-100% control at 100 ppm) | GRAY MOLD [8]: - (0-19% control at 400 ppm) | mortality at 12 ppm (corn rootworm; CRW RATE 12.00 PPM): 0% | mortality at 200 ppm ([9]; SM & MA RATE 200 PPM): 0% | mortality at 200 ppm ([10]; SM & MA RATE 200 PPM): 0% | RICE BLAST [11]: + (20-89% control at 400 ppm)

O=[N+]([O-])c1ccc(CCNc2ccnc3c(F)cccc23)cc1 [Example 117, 8-fluoro-N-[2-(4-nitrophenyl)ethyl]-4-quinolinamine]
LEAF BLOT [1]: - (0-19% control at 400 ppm) | APPL SCAB [2]: - (0-19% control at 400 ppm) | mortality at 200 ppm ([3]; SM & MA RATE 200 PPM): 0% | SM RESULTS % ([3]; SM & MA RATE 200 PPM): 0% | LEAF RUST [4]: + (20-89% control at 400 ppm) | POWD MDEW [5]: + (20-89% control at 400 ppm) | LEAF SPOT [6]: + (20-89% control at 400 ppm) | DOWN MDEW [7]: +++ (90-100% control at 100 ppm) | GRAY MOLD [8]: - (0-19% control at 400 ppm) | CRW RESULTS % (corn rootworm; CRW RATE 12.00 PPM): 0% | mortality at 12 ppm (corn rootworm; CRW RATE 12.00 PPM): 0% | mortality at 200 ppm ([9]; SM & MA RATE 200 PPM): 0% | MA RESULTS % ([9]; SM & MA RATE 200 PPM): 0% | mortality at 200 ppm ([10]; SM & MA RATE 200 PPM): 0% | SAW RESULTS % ([10]; SM & MA RATE 200 PPM): 0% | RICE BLAST [11]: + (20-89% control at 400 ppm)

Fc1cccc2c(NCCc3c(Cl)cccc3Cl)ccnc12 [Example 118, N-[2-(2,6-dichlorophenyl)ethyl]-8-fluoro-4-quinolinamine]
LEAF BLOT [1]: - (0-19% control at 400 ppm) | APPL SCAB [2]: - (0-19% control at 400 ppm) | mortality at 200 ppm ([3]; SM & MA RATE 200 PPM): 0% | LEAF RUST [4]: - (0-19% control at 400 ppm) | POWD MDEW [5]: - (0-19% control at 400 ppm) | LEAF SPOT [6]: - (0-19% control at 400 ppm) | DOWN MDEW [7]: - (0-19% control at 400 ppm) | GRAY MOLD [8]: - (0-19% control at 400 ppm) | mortality at 12 ppm (corn rootworm; CRW RATE 12.00 PPM): 0% | mortality at 200 ppm ([9]; SM & MA RATE 200 PPM): 0% | mortality at 200 ppm ([10]; SM & MA RATE 200 PPM): 0% | RICE BLAST [11]: + (20-89% control at 400 ppm)

COc1cc(CCNc2ccnc3c(F)cccc23)cc(OC)c1 [Example 119, N-[2-(3,5-dimethoxyphenyl)ethyl]-8-fluoro-4-quinolinamine]
LEAF BLOT [1]: + (20-89% control at 400 ppm) | APPL SCAB [2]: + (20-89% control at 400 ppm) | mortality at 200 ppm ([3]; SM & MA RATE 200 PPM): 0% | LEAF RUST [4]: + (20-89% control at 400 ppm) | POWD MDEW [5]: + (20-89% control at 400 ppm) | LEAF SPOT [6]: - (0-19% control at 400 ppm) | DOWN MDEW [7]: ++ (90-100% control at 400 ppm) | GRAY MOLD [8]: - (0-19% control at 400 ppm) | mortality at 12 ppm (corn rootworm; CRW RATE 12.00 PPM): 0% | mortality at 200 ppm ([9]; SM & MA RATE 200 PPM): 0% | mortality at 200 ppm ([10]; SM & MA RATE 200 PPM): 0% | RICE BLAST [11]: + (20-89% control at 400 ppm)

c1ccc(C2CC2Nc2ccnc3ccccc23)cc1 (stereo not drawn) [Example 120, N-(2-phenylcyclopropyl)-4-quinolinamine]
LEAF BLOT [1]: - (0-19% control at 400 ppm) | APPL SCAB [2]: - (0-19% control at 400 ppm) | mortality at 200 ppm ([3]; SM & MA RATE 200 PPM): 0% | LEAF RUST [4]: + (20-89% control at 400 ppm) | POWD MDEW [5]: - (0-19% control at 400 ppm) | LEAF SPOT [6]: +++ (90-100% control at 100 ppm) | DOWN MDEW [7]: ++ (90-100% control at 400 ppm) | GRAY MOLD [8]: - (0-19% control at 400 ppm) | mortality at 12 ppm (corn rootworm; CRW RATE 12.00 PPM): 0% | mortality at 200 ppm ([9]; SM & MA RATE 200 PPM): 0% | mortality at 200 ppm ([10]; SM & MA RATE 200 PPM): 0% | RICE BLAST [11]: + (20-89% control at 400 ppm)

CC(=O)N(CCc1ccc(C)cc1)c1ccnc2ccc(C)cc12 [Example 122, N-[2-(4-methylphenyl)ethyl]-N-(6-methyl-4-quinolinyl)acetamide]
LEAF BLOT [1]: - (0-19% control at 400 ppm) | APPL SCAB [2]: - (0-19% control at 400 ppm) | mortality at 200 ppm ([3]; SM & MA RATE 200 PPM): 0% | mortality at 400 ppm [3]: 0% | LEAF RUST [4]: + (20-89% control at 400 ppm) | POWD MDEW [5]: - (0-19% control at 400 ppm) | LEAF SPOT [6]: - (0-19% control at 400 ppm) | DOWN MDEW [7]: ++ (90-100% control at 400 ppm) | GRAY MOLD [8]: - (0-19% control at 400 ppm) | mortality at 12 ppm (corn rootworm; CRW RATE 12.00 PPM): 0% | mortality at 24 ppm (corn rootworm): 0% | mortality at 200 ppm ([9]; SM & MA RATE 200 PPM): 0% | mortality at 400 ppm [9]: 0% | mortality at 200 ppm ([10]; SM & MA RATE 200 PPM): 0% | mortality at 400 ppm [10]: 0% | RICE BLAST [11]: ++ (90-100% control at 400 ppm)

Fc1cccc2c(NC3CC3c3ccccc3)ccnc12 (stereo not drawn) [Example 123, 8-fluoro-N-(2-phenylcyclopropyl)-4-quinolinamine]
LEAF BLOT [1]: - (0-19% control at 400 ppm) | APPL SCAB [2]: - (0-19% control at 400 ppm) | mortality at 200 ppm ([3]; SM & MA RATE 200 PPM): 0% | LEAF RUST [4]: + (20-89% control at 400 ppm) | POWD MDEW [5]: - (0-19% control at 400 ppm) | LEAF SPOT [6]: - (0-19% control at 400 ppm) | DOWN MDEW [7]: +++ (90-100% control at 100 ppm) | GRAY MOLD [8]: - (0-19% control at 400 ppm) | mortality at 12 ppm (corn rootworm; CRW RATE 12.00 PPM): 0% | mortality at 200 ppm ([9]; SM & MA RATE 200 PPM): 0% | mortality at 200 ppm ([10]; SM & MA RATE 200 PPM): 0% | RICE BLAST [11]: + (20-89% control at 400 ppm)
